Bounds are passed on as bounds.

For one assay, the target named is T1, human capsaicin receptor (Homo sapiens, UniProt Q8NER1).
T1 construct: expressed in transfected cells
T1 sequence (Q8NER1 whole entry): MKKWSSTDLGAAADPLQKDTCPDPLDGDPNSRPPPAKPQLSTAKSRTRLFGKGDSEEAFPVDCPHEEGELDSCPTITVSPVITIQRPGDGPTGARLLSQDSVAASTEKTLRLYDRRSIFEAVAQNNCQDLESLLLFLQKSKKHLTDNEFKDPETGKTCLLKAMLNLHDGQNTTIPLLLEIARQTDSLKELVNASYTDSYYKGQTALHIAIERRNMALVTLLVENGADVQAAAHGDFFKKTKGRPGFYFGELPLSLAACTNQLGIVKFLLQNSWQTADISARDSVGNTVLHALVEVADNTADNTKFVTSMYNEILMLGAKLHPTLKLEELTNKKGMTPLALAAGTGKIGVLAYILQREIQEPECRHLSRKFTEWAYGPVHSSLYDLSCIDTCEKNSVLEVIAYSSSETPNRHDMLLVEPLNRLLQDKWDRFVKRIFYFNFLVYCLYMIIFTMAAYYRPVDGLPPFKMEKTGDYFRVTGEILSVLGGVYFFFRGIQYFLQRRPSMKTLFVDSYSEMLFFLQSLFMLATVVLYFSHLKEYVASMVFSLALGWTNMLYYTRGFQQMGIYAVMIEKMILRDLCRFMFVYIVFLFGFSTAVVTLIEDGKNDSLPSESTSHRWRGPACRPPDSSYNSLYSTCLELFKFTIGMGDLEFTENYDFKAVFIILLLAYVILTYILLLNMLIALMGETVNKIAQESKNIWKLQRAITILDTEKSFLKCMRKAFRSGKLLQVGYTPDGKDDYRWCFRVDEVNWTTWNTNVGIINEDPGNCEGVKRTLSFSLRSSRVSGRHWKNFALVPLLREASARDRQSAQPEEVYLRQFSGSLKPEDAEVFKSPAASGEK
In words: Calcium mobilization assay, determination of antagonist activity (Example 6). The class given is cell-based. As to conditions: Table I; IC50 determined as described in Example 6; read-out: IC50. How it is done: A cDNA encoding full length human capsaicin receptor (SEQ ID NO:1, 2 or 3 of U.S. Pat. No. 6,482,611) is subcloned in the plasmid pBK-CMV (Stratagene, La Jolla, Calif.) for recombinant expression in mammalian cells.
Human embryonic kidney (HEK293) cells are transfected with the pBK-CMV expression construct encoding the full length human capsaicin receptor using standard methods. The transfected cells are selected for two weeks in media containing G418 (400 μg/ml) to obtain a pool of stably transfected cells. Independent clones are isolated from this pool by limiting dilution to obtain clonal stable cell lines for use in subsequent experiments.
This Example illustrates representative calcium mobilization assays for use in evaluating test compounds for agonist and antagonist activity.
Cells transfected with expression plasmids (as described in Example 4) and thereby expressing human capsaicin receptor are seeded and grown to 70-90% confluency in FALCON black-walled, clear-bottomed 96-well plates (#3904, BECTON-DICKINSON, Franklin Lakes, N.J.). The culture medium is emptied from the 96 well plates and FLUO-3 AM calcium sensitive dye (Molecular Probes, Eugene, Oreg.) is added to each well (dye solution: 1 mg FLUO-3 AM, 440 μL DMSO and 440 μl 20% pluronic acid in DMSO, diluted 1:250 in Krebs-Ringer HEPES (KRH) buffer (25 mM HEPES, 5 mM KCl, 0.96 mM NaH2PO4, 1 mM MgSO4, 2 mM CaCl2, 5 mM glucose, 1 mM probenecid, pH 7.4), 50 μl diluted solution per well). Plates are covered with aluminum foil and incubated at 37° C. for 1-2 hours in an environment containing 5% CO2. After the incubation, the dye is emptied from the plates, and the cells are washed once with KRH buffer, and resuspended in KRH buffer.
To measure the ability of a test compound to agonize or antagonize a calcium mobilization response in cells expressing capsaicin receptors to capsaicin or other vanilloid agonist, the EC50 of the agonist capsaicin is first determined. An additional 20 μl of KRH buffer and 1 μl DMSO is added to each well of cells, prepared as described above. 100 μl capsaicin in KRH buffer is automatically transferred by the FLIPR instrument to each well. Capsaicin-induced calcium mobilization is monitored using either FLUOROSKAN ASCENT (Labsystems; Franklin, Mass.) or FLIPR (fluorometric imaging plate reader system; Molecular Devices, Sunnyvale, Calif.) instruments. Data obtained between 30 and 60 seconds after agonist application are used to generate an 8-point concentration response curve, with final capsaicin concentrations of 1 nM to 3 μM. KALEIDAGRAPH software (Synergy Software, Reading, Pa.) is used to fit the data to the equation: y=a*(1/(1+(b/x)^c)) to determine the 50% excitatory concentration (EC50) for the response. In this equation, y is the maximum fluorescence signal, x is the concentration of the agonist or antagonist (in this case, capsaicin), a is the Emax, b corresponds to the EC50 value and c is the Hill coefficient. Determination of Agonist Activity
Test compounds are dissolved in DMSO, diluted in 20 μl KRH buffer so that the final concentration of test compounds in the assay well is between 1 μM and 5 μM, and added to cells prepared as described above. The 96 well plates containing prepared cells and test compounds are incubated in the dark, at room temperature for 0.5 to 6 hours. It is important that the incubation not continue beyond 6 hours. Just prior to determining the fluorescence response, 100 μl capsaicin in KRH buffer at twice the EC50 concentration determined as described above is automatically added by the FLIPR instrument to each well of the 96 well plate for a final sample volume of 200 μl and a final capsaicin concentration equal to the EC50. The final concentration of test compounds in the assay wells is between 1 μM and 5 μM. […]
A general note: Calcium assays in cells follow changes in intracellular calcium, usually with a dye or a luminescent sensor.
As usually defined, the IC50 is the midpoint of a concentration-inhibition curve. `CC(=O)c1ccc(C(F)(F)F)c(-c2ccc3c(Nc4ccc(C(F)(F)F)cn4)ccnc3n2)n1` [compound 29, 1-{5-Trifluoromethyl-6-[5-(5-trifluoromethyl-pyridin-2-ylamino)-[1,8]naphthyridin-2-yl]-pyridin-2-yl}-ethanone]: the IC50 is < 1 µM.

Take `O=C(O)c1ccc(-c2cnc3c(Nc4ccc(C(F)(F)F)cn4)ccnc3n2)c(C(F)(F)F)c1` [compound 38, 3-(trifluoromethyl)-4-(8-{[5-(trifluoromethyl)pyridin-2-yl]amino}pyrido[2,3-b]pyrazin-3-yl)benzoic acid]: the IC50 was < 1 µM.

`CCOc1nc(Nc2ccnc3nc(-c4ccc(C#N)cc4C(F)(F)F)cnc23)ccc1C(F)(F)F` [compound 42, 4-(8-{[6-ethoxy-5-(trifluoromethyl)pyridin-2-yl]amino}pyrido[2,3-b]pyrazin-3-yl)-3-(trifluoromethyl)benzonitrile]: the IC50 is < 1 µM.

Regarding `CC(C)CNc1cc(C(F)(F)F)c(-c2cnc3c(Nc4ccc(C(F)(F)F)cn4)ccnc3n2)nn1` [compound 99, 3-[6-(isobutylamino)-4-(trifluoromethyl)pyridazin-3-yl]-N-[5-(trifluoromethyl)-pyridin-2-yl]pyrido[2,3-b]pyrazin-8-amine], the IC50 was < 1 µM.

On to `N#Cc1ccc(C(F)(F)F)c(-c2ccc3c(Nc4ccc(C(F)(F)F)cn4)ccnc3n2)n1` [compound 24, 5-Trifluoromethyl-6-[5-(5-trifluoromethyl-pyridin-2-ylamino)-[1,8]naphthyridin-2-yl]-pyridine-2-carbonitrile], for which the half-maximal inhibitory concentration (IC50) was < 1 µM.

With `CC(C)N1CCN(c2cc(C(F)(F)F)c(-c3cnc4c(Nc5ccc(C(F)(F)F)cn5)ccnc4n3)nn2)CC1` [compound 75, 3-[6-(4-isopropylpiperazin-1-yl)-4-(trifluoromethyl)-pyridazin-3-yl]-N-[5-(trifluoromethyl)pyridin-2-yl]pyrido[2,3-b]pyrazin-8-amine], the half-maximal inhibitory concentration (IC50) is < 1 µM.

In the case of `OC1CN(c2cc(C(F)(F)F)c(-c3cnc4c(Nc5ccc(C(F)(F)F)cn5)ccnc4n3)nn2)C1` [compound 179, 1-[5-(trifluoromethyl)-6-(8-{[5-(trifluoromethyl)pyridin-2-yl]amino}pyrido[2,3-b]pyrazin-3-yl)pyridazin-3-yl]azetidin-3-ol], the IC50 was < 1 µM.

Turning to `CCCCN(C)CCNc1cc(C(F)(F)F)c(-c2cnc3c(Nc4ccc(C(F)(F)F)cn4)ccnc3n2)nn1` [compound 70, N-butyl-N-methyl-N′-[5-(trifluoromethyl)-6-(8-{[5-(trifluoromethyl)pyridin-2-yl]amino}pyrido[2,3-b]pyrazin-3-yl)pyridazin-3-yl]ethane-1,2-diamine], the IC50 is < 1 µM.

For `CCOc1nc(Nc2ccnc3nc(-c4ccc(C(=O)O)cc4C(F)(F)F)cnc23)ccc1C(F)(F)F` [compound 44, 4-(8-{[6-ethoxy-5-(trifluoromethyl)pyridin-2-yl]amino}pyrido[2,3-b]pyrazin-3-yl)-3-(trifluoromethyl)benzoic acid], the IC50 was < 1 µM.

On to `NC(=O)c1ccc(C(F)(F)F)c(-c2ccc3c(Nc4ccc(C(F)(F)F)cn4)ccnc3n2)n1` [compound 25, 5-Trifluoromethyl-6-[5-(5-trifluoromethyl-pyridin-2-ylamino)-[1,8]naphthyridin-2-yl]-pyridine-2-carboxylic acid amide], for which the IC50 is < 1 µM.

With `CCCN(CCC)C1CCN(c2cc(C(F)(F)F)c(-c3cnc4c(Nc5ccc(C(F)(F)F)cn5)ccnc4n3)nn2)CC1` [compound 81, 3-{6-[4-(dipropylamino)-piperidin-1-yl]-4-(trifluoro-methyl)pyridazin-3-yl}-N-[5-(trifluoromethyl)pyridin-2-yl]pyrido[2,3-b]pyrazin-8-amine], the half-maximal inhibitory concentration (IC50) is < 1 µM.

For `C[C@@H](O)CNc1cc(C(F)(F)F)c(-c2cnc3c(Nc4ccc(C(F)(F)F)cn4)ccnc3n2)nn1` [compound 125, (R)-1-{[5-(trifluoromethyl)-6-(8-{[5-(trifluoromethyl)-pyridin-2-yl]amino}-pyrido[2,3-b]pyrazin-3-yl)pyridazin-3-yl]amino}propan-2-ol], the IC50 was < 1 µM.

Consider `N#Cc1cnc(-c2cnc3c(Nc4ccc(C(F)(F)F)cn4)ccnc3n2)c(C(F)(F)F)c1` [compound 32, 5-Trifluoromethyl-6-[8-(5-trifluoromethyl-pyridin-2-ylamino)-pyrido[2,3-b]pyrazin-3-yl]-nicotinonitrile], for which the IC50 was < 1 µM.

Regarding `CC(C)N(CCCO)c1cc(C(F)(F)F)c(-c2cnc3c(Nc4ccc(C(F)(F)F)cn4)ccnc3n2)nn1` [compound 178, 3-{isopropyl[5-(trifluoro-methyl)-6-(8-{[5-(trifluoro-methyl)pyridin-2-yl]amino}-pyrido[2,3-b]pyrazin-3-yl)pyridazin-3-yl]amino}propan-1-ol], the IC50 is < 1 µM.

Turning to `CCOc1nc(Nc2ccnc3nc(-c4ncc(C(N)=O)cc4C(F)(F)F)cnc23)ccc1C(F)(F)F` [compound 48, 6-(8-{[6-ethoxy-5-(trifluoromethyl)pyridin-2-yl]amino}pyrido[2,3-b]pyrazin-3-yl)-5-(trifluoromethyl)nicotinamide], the IC50 was < 1 µM.

In the case of `CCN(C)CCN(CC)c1cc(C(F)(F)F)c(-c2cnc3c(Nc4ccc(C(F)(F)F)cn4)ccnc3n2)nn1` [compound 91, N,N′-diethyl-N-methyl-N′-[5-(trifluoromethyl)-6-(8-{[5-(trifluoromethyl)pyridin-2-yl]amino}pyrido[2,3-b]pyrazin-3-yl)pyridazin-3-yl]ethane-1,2-diamine], the IC50 is < 1 µM.

As to `CCCCN(CC)c1cc(C(F)(F)F)c(-c2cnc3c(Nc4ccc(C(F)(F)F)cn4)ccnc3n2)nn1` [compound 152, 3-{6-[butyl(ethyl)amino]-4-(trifluoromethyl)pyridazin-3-yl}-N-[5-(trifluoromethyl)-pyridin-2-yl]pyrido[2,3-b]pyrazin-8-amine], the IC50 is < 1 µM.

Still in this assay, the particulars now being: cells expressing human capsaicin receptor; capsaicin at EC50; read-out: IC50 determined as described in Example 6.
Take `CCOc1nc(Nc2ccnc3nc(-c4ncc(C(N)=O)cc4C(F)(F)F)cnc23)ccc1C(F)(F)F` [Compound 9, 6-(8-(6-Ethoxy-5-(trifluoromethyl)pyridin-2-ylamino)pyrido[2,3-b]pyrazin-3-yl)-5-(trifluoromethyl)nicotinamide]: the IC50 is < 1 µM.

Take `Cc1cc(F)cnc1-c1ccc2c(Nc3ccc(C(F)(F)F)cn3)ccnc2n1` [Compound 2, 7-(5-Fluoro-3-methylpyridin-2-yl)-N-(5-(trifluoromethyl)ipyridin-2-yl)-1,8-naphthyridin-4-amine]: the IC50 was < 1 µM.

Take `COc1ccc(C(F)(F)F)c(-c2ccc3c(Nc4ncc(C(F)(F)F)cn4)ccnc3n2)n1` [Compound 6, [7-(6-Methoxy-3-trifluoromethyl-pyridin-2-yl)-[1,8]naphthyridin-4-yl]-(5-trifluoromethyl-pyrimidin-2-yl)-amine]: the IC50 is < 1 µM.

On to `NC(=O)c1cnc(-c2cnc3c(Nc4ccc(C(F)(F)F)cn4)ccnc3n2)c(C(F)(F)F)c1` [Compound 4, 5-Trifluoromethyl-6-[8-(5-trifluoromethyl-pyridin-2-ylamino)-pyrido[2,3-b]pyrazin-3-yl]-nicotinamide], for which the 50% inhibitory concentration (IC50) is < 1 µM.

On to `NC(=O)c1cnc(-c2cnc3c(Nc4cnc5ccccc5n4)ccnc3n2)c(C(F)(F)F)c1` [Compound 14, 6-(8-(Quinoxalin-2-ylamino)pyrido[2,3-b]pyrazin-3-yl)-5-(trifluoromethyl)nicotinamide], for which the IC50 is < 1 µM.
